Consider seven molecules from ChEMBL document CHEMBL5143672, “New diarylpentanoids and chalcones as potential antimicrobial adjuvants” (2022).

Assay [1] deals with Escherichia coli. Kind of assay: Antibacterial activity against Escherichia coli ATCC 25922 assessed as inhibition of bacterial growth by broth microdilution method. The assay is classed as functional.
Another assay deals with Pseudomonas aeruginosa. Kind of assay: Antibacterial activity against Pseudomonas aeruginosa ATCC 27853 assessed as inhibition of bacterial growth by broth microdilution method. The assay is classed as functional.
A further assay has as its system Salmonella typhimurium. Kind of assay: Antibacterial activity against Salmonella enterica serovar typhimurium SL1344 (SE03) assessed as inhibition of bacterial growth by broth microdilution method. Type of assay: functional, Salmonella enterica subsp. enterica serovar Typhimurium.
Assay [2] deals with Staphylococcus aureus. Kind of assay: Antibacterial activity against Staphylococcus aureus ATCC 25923 assessed as inhibition of bacterial growth by broth microdilution method. The assay is classed as functional. A general note: In broth dilution the organism is exposed to a series of concentrations in liquid medium.
The next assay relates to Enterococcus faecalis. Kind of assay: Antibacterial activity against Enterococcus faecalis ATCC 29212 assessed as inhibition of bacterial growth by broth microdilution method. Type of assay: functional.
Assay [3] deals with Staphylococcus aureus. Kind of assay: Antibacterial activity against methicillin and ofloxacin-resistant Staphylococcus aureus 272123 assessed as inhibition of bacterial growth by broth microdilution method. The assay is classed as functional.
In a further assay the test system is Candida albicans. Kind of assay: Antifungal activity against Candidia albicans ATCC 10231 assessed as inhibition of fungal growth by broth microdilution method. Type of assay: functional.
A further assay has as its system Aspergillus fumigatus. In words: Antifungal activity against Aspergillus fumigatus ATCC 204305 assessed as inhibition of fungal growth by broth microdilution method. The assay is classed as functional.
In another assay the test system is Trichophyton rubrum. In words: Antifungal activity against Trichophyton rubrum FF5 assessed as inhibition of fungal growth by broth microdilution method. Type of assay: functional.
Assay [4] has as its system Escherichia coli. In words: Antimicrobial adjuvant activity against ESBL-producing Escherichia coli SA/2 assessed as potentiation of cefotaxime-induced antibacterial activity by measuring fold reduction in cefotaxime MIC at 64 ug/ml by broth microdilution method. The note with it: dose 64 µg/ml. The assay is classed as functional.
For assay [5], the system named is Salmonella enterica subsp. enterica serovar Typhimurium. In words: Inhibition of Multidrug resistance efflux pump in Salmonella enterica serovar typhimurium SL1344 (SE03) assessed as relative fluorescence index using ethidium bromide as substrate at 50 uM by fluorescence based analysis.
Assay [6] can be described thus: Inhibition of Multidrug resistance efflux pump in Staphylococcus aureus 272123 assessed as relative fluorescence index using ethidium bromide as substrate at 50 uM by fluorescence based analysis.

Bounds are passed on as bounds.

Consider `COc1ccccc1/C=C1\COC/C(=C\c2ccccc2OC)C1=O`, for which the MIC in the assay on Escherichia coli [1], in the assay on Pseudomonas aeruginosa, with Salmonella typhimurium, in the assay with Staphylococcus aureus [2], in the assay with Enterococcus faecalis and with Staphylococcus aureus [3] was above 64 µg/mL throughout. The MIC with Candida albicans, in the assay on Aspergillus fumigatus and in the assay on Trichophyton rubrum was above 128 µg/mL in each case. Moreover, the “fold change (FC)” value with Escherichia coli [4] was 2. In addition, the RFU in assay [5] worked out at 0.16; in [6], 0.21.
For `O=C1/C(=C/c2ccc(Cl)cc2Cl)COC/C1=C\c1ccc(Cl)cc1Cl`, the MIC in the assay on Escherichia coli [1], in the assay on Pseudomonas aeruginosa, in the assay on Salmonella typhimurium, with Staphylococcus aureus [2], with Enterococcus faecalis and with Staphylococcus aureus [3] was above 64 µg/mL in each case. The MIC in the assay with Candida albicans, in the assay with Aspergillus fumigatus and with Trichophyton rubrum was above 128 µg/mL throughout. In addition, the “fold change (FC)” value in the assay on Escherichia coli [4] worked out at 2. Also, the RFU in [5] is -0.13; in assay [6] it was -0.25.
Take `O=C1/C(=C/c2ccc(C(F)(F)F)cc2)COC/C1=C\c1ccc(C(F)(F)F)cc1`: the MIC with Escherichia coli [1], in the assay with Pseudomonas aeruginosa, in the assay on Salmonella typhimurium, in the assay on Staphylococcus aureus [2], in the assay on Enterococcus faecalis and in the assay on Staphylococcus aureus [3] was above 64 µg/mL each time. Also, the MIC in the assay on Candida albicans, with Aspergillus fumigatus and in the assay on Trichophyton rubrum was above 128 µg/mL throughout. Besides, the “fold change (FC)” value in the assay with Escherichia coli [4] came to 2. In addition, the RFU in [5] was -0.24; in assay [6], -0.12.
On to `O=C1/C(=C/c2ccccc2Cl)COC/C1=C\c1ccccc1Cl`, for which the MIC in the assay with Escherichia coli [1], with Pseudomonas aeruginosa, in the assay on Salmonella typhimurium, in the assay with Staphylococcus aureus [2], in the assay with Enterococcus faecalis and in the assay with Staphylococcus aureus [3] was above 64 µg/mL in each case. The MIC with Candida albicans, with Aspergillus fumigatus and in the assay with Trichophyton rubrum was above 128 µg/mL in each case. The “fold change (FC)” value with Escherichia coli [4] is reported as 2. In addition, the values for the RFU in assay [5] and in assay [6] were -0.08 and -0.16, respectively.
With `COc1cc(/C=C2\COC/C(=C\c3cc(OC)c(OC)c(OC)c3)C2=O)cc(OC)c1OC`, the MIC in the assay on Escherichia coli [1], with Pseudomonas aeruginosa, with Salmonella typhimurium, with Staphylococcus aureus [2], with Enterococcus faecalis and with Staphylococcus aureus [3] was above 64 µg/mL throughout. For the same molecule, the MIC with Candida albicans, in the assay on Aspergillus fumigatus and in the assay with Trichophyton rubrum was above 128 µg/mL each time. The “fold change (FC)” value with Escherichia coli [4] is 2. The values for the RFU in [5] and in assay [6] were -0.05 and 0.02, respectively.
Regarding `O=C1/C(=C/c2ccc(F)cc2)COC/C1=C\c1ccc(F)cc1`, the MIC with Escherichia coli [1], in the assay with Pseudomonas aeruginosa, in the assay with Salmonella typhimurium, in the assay with Staphylococcus aureus [2], with Enterococcus faecalis and with Staphylococcus aureus [3] was above 64 µg/mL in each case. Moreover, the MIC in the assay with Candida albicans, in the assay on Aspergillus fumigatus and in the assay with Trichophyton rubrum was above 128 µg/mL throughout. In addition, the “fold change (FC)” value with Escherichia coli [4] was 8. Also, the RFU was 0.17 in [5] and -0.11 in [6].
For the molecule `O=C1/C(=C/c2ccccc2F)COC/C1=C\c1ccccc1F`, the MIC in the assay on Escherichia coli [1], in the assay with Pseudomonas aeruginosa, in the assay on Salmonella typhimurium, in the assay with Staphylococcus aureus [2], in the assay with Enterococcus faecalis and with Staphylococcus aureus [3] was above 64 µg/mL in each case. The MIC with Candida albicans, in the assay on Aspergillus fumigatus and with Trichophyton rubrum was above 128 µg/mL each time. For the same molecule, the “fold change (FC)” value with Escherichia coli [4] is recorded as 2. Moreover, the RFU in assay [5] is -0.04; in [6], -0.08.
